Experimental findings from patent US10858360B2, “Tricyclic gyrase inhibitors” (priority 2011, dated 2020) are described below.

Common to all, as to format: cell-based
Assay [1] relates to E. coli ATCC 25922. Description: MIC, E. coli ATCC 25922. The following applies: for MIC: Escherichia coli.
The subject of assay [2] is K. pneumoniae ATCC 700603. Description: MIC, K. pneumoniae ATCC 700603. The settings on record: for MIC: Klebsiella pneumoniae, ATCC700603, read-out: MIC Kpn; for MIC Kpn: Kpn = K. pneumoniae.
Assay [3] relates to S. aureus ATCC 13709. Nature of the assay: MIC, S. aureus ATCC 13709 (Alamar Blue broth microdilution). The following applies: for MIC: Staphylococcus aureus.
The subject of assay [4] is P. aeruginosa ATCC 15692. Nature of the assay: MIC, P. aeruginosa ATCC 15692. The settings on record: for MIC: Pseudomonas aeruginosa, ATCC15692, Pa = P. aeruginosa.
Assay [5] concerns S. pneumoniae ATCC 51916. Description: MIC, S. pneumoniae ATCC 51916. The settings on record: for MIC: Streptococcus pneumoniae, ATCC51916, Spn = S. pneumoniae.
Assay [6] deals with A. baumannii ATCC 19606. Description: MIC, A. baumannii ATCC 19606. The settings on record: strain not given; for MIC: Acinetobacter baumannii, ATCC19606, Ab = A. baumannii.
Assay [7] relates to F. tularensis holarctica LVS. Nature of the assay: microbe, parasite or virus in culture.
Assay [8] concerns B. thailandensis ATCC E264. Nature of the assay: microbe, parasite or virus in culture.
Assay [9] concerns Y. pestis CO92 pgm-. Description: microbe, parasite or virus in culture.
[10] abbreviates: ATCC25922, E. coli, Alamar Blue read after overnight incubation at 35° C.
Setting [11] is: ATCC25922, Ec = E. coli, strain not given.
The mark [12] stands for this setting: ATCC13709, S. aureus, Alamar Blue read after overnight incubation at 35° C.
Setting [13] is: E. coli, Alamar Blue read after overnight incubation at 35° C.
Where [14] appears, read: S. aureus, Alamar Blue read after overnight incubation at 35° C.

The structures appear in SMILES notation. Converted amounts (≈) assume the structure as drawn. Where two headings read alike, the source gives them in different places.

`CNc1cc(F)cc2c1[nH]c1nc(Oc3cnc4cccnc4c3)nc(N3CC4C(N)C4C3)c12` (stereo not shown) [4.035]: the MIC in assay [1] (setting [10]) is at most 0.5 µg/mL; in assay [1] (setting [11]) it was at most 0.5 µg/mL; in [2], 2 µg/mL (≈ 4.38 µM); in [3] (setting [12]) it was at most 0.5 µg/mL; in assay [3] (ATCC13709, Sa = S. aureus) it was at most 0.5 µg/mL; in assay [4] it was 4 µg/mL (≈ 8.76 µM). In addition, the MIC is at most 0.5 µg/mL in assay [5]; at most 0.5 µg/mL in [6]; 1 µg/mL (≈ 2.19 µM) in assay [7] (Francisella tularensis, read-out: MIC Ft); at most 0.5 µg/mL in assay [8] (Burkholderia thailandensis, ATCCE264, read-out: MIC Bt); at most 0.5 µg/mL in assay [9] (Yersinia pestis, CO92PGM, read-out: MIC Yp).
As to `CNc1cc(F)cc2c1[nH]c1nc(Oc3cnc4cccnc4c3)nc(N3CC4(CCC4N)C3)c12` (stereo not shown) [4.045], the “MIC Ec” value in assay [1] (setting [13]) was at most 0.5 µg/mL; in assay [1] (Ec = E. coli, strain not given), at most 0.5 µg/mL. The “MIC Kpn” value in assay [2] came to 8 µg/mL (≈ 17 µM). Besides, the “MIC Sa” value in assay [3] (setting [14]) and in [3] (Sa = S. aureus) was at most 0.5 µg/mL each time. Besides, the “MIC Pa” value in assay [4] turned out to be 4 µg/mL (≈ 8.5 µM). The “MIC Spn” value in assay [5] is at most 0.5 µg/mL. Besides, the “MIC Ab” value in [6] was at most 0.5 µg/mL. In assay [7] (Ft = F. tularensis, strain not given), the “MIC Ft” value amounted to 2 µg/mL (≈ 4.25 µM). The “MIC Bt” value in assay [8] is 1 µg/mL (≈ 2.13 µM). Besides, the “MIC Yp” value in assay [9] (Yp = Y. pestis) is at most 0.5 µg/mL.
As for `CNc1cc(F)cc2c1[nH]c1nc(Oc3cnc(C)nc3)nc(N3C[C@@H]4[C@H](N)C[C@]4(C)C3)c12` [4.151], the MIC was at most 0.5 µg/mL in [1] (setting [10]); at most 0.5 µg/mL in assay [1] (setting [11]); 1 µg/mL (≈ 2.23 µM) in [2]; at most 0.5 µg/mL in [3] (setting [12]); at most 0.5 µg/mL in assay [3] (ATCC13709, Sa = S. aureus); 1 µg/mL (≈ 2.23 µM) in [4]. Besides, the MIC in assay [5] and in [6] was at most 0.5 µg/mL throughout.
Take `CNc1cc(F)cc2c1[nH]c1nc(Oc3cnc(C)nc3)nc(N3CC4NCCC4(C)C3)c12` (stereo not shown) [4.157]: the MIC was at most 0.5 µg/mL in assay [1] (setting [10]); at most 0.5 µg/mL in assay [1] (setting [11]); 4 µg/mL (≈ 8.92 µM) in [2]; at most 0.5 µg/mL in [3] (setting [12]); at most 0.5 µg/mL in assay [3] (ATCC13709, Sa = S. aureus); 8 µg/mL (≈ 17.8 µM) in [4]. For the same molecule, the MIC in assay [5] and in assay [6] was at most 0.5 µg/mL in each case.
With `CNc1cc(F)cc2c1[nH]c1nc(Oc3cnc(C)nc3)nc(N3C[C@@H]4[C@H](C3)[C@@]4(N)C(N)=O)c12` [4.160], the MIC in [1] (setting [10]) was 2 µg/mL (≈ 4.32 µM); in assay [1] (setting [11]), 2 µg/mL (≈ 4.32 µM); in assay [2] it was over 16 µg/mL; in assay [3] (setting [12]), at most 0.5 µg/mL; in [3] (ATCC13709, Sa = S. aureus), at most 0.5 µg/mL; in [4], over 16 µg/mL. Also, the values for the MIC in assay [5] and in [6] were at most 0.5 µg/mL and over 16 µg/mL, respectively.
`CNc1cc(F)cc2c1[nH]c1nc(Oc3cnc(C(C)O)nc3)nc(N3CC4C[C@@H](N)C4C3)c12` (stereo partly shown) [4.409]: the MIC in [1] (setting [10]) was at most 0.5 µg/mL; in assay [1] (setting [11]), at most 0.5 µg/mL; in [2] it was 4 µg/mL (≈ 8.61 µM); in [3] (setting [12]), at most 0.5 µg/mL; in assay [3] (ATCC13709, Sa = S. aureus) it was at most 0.5 µg/mL; in assay [4], 1 µg/mL (≈ 2.15 µM). For the same molecule, the MIC in assay [5] is at most 0.5 µg/mL; in assay [6] it was 1 µg/mL (≈ 2.15 µM).
With `CNc1cc(F)cc2c1[nH]c1nc(Oc3cnc(C(C)O)nc3)nc(N3CC4(CC[C@H]4N)C3)c12` (stereo partly shown) [4.410], the MIC is at most 0.5 µg/mL in [1] (setting [10]); at most 0.5 µg/mL in assay [1] (setting [11]); 2 µg/mL (≈ 4.31 µM) in [2]; at most 0.5 µg/mL in assay [3] (setting [12]); at most 0.5 µg/mL in assay [3] (ATCC13709, Sa = S. aureus); 1 µg/mL (≈ 2.15 µM) in assay [4]. Also, the MIC in [5] was at most 0.5 µg/mL; in assay [6] it was 2 µg/mL (≈ 4.31 µM).
With `CNc1cc(F)cc2c1[nH]c1nc(Oc3ccc(C#N)nc3)nc(N3C[C@H]4C[C@@H]3C[C@H]4N)c12` [4.434], the MIC in assay [1] (setting [10]) is at most 0.5 µg/mL; in [1] (setting [11]), at most 0.5 µg/mL; in [2] it was 1 µg/mL (≈ 2.25 µM); in assay [3] (setting [12]), at most 0.5 µg/mL; in [3] (ATCC13709, Sa = S. aureus), at most 0.5 µg/mL; in [4], 1 µg/mL (≈ 2.25 µM). Moreover, the MIC in [5] and in assay [6] was at most 0.5 µg/mL throughout.
With `CNc1cc(F)c(F)c2c1[nH]c1nc(Oc3cnc(C)nc3)nc(N3CC4(CCC4N)C3)c12` (stereo not shown) [5.01], the “MIC Ec” value in assay [1] (Ec = E. coli, strain not given) was at most 0.5 µg/mL. Besides, the “MIC Kpn” value in [2] worked out at 1 µg/mL (≈ 2.21 µM). Besides, the “MIC Sa” value in [3] (Sa = S. aureus) is at most 0.5 µg/mL. For the same molecule, the “MIC Pa” value in assay [4] was at most 0.5 µg/mL. The “MIC Spn” value in assay [5] was at most 0.5 µg/mL. Moreover, the “MIC Ab” value in [6] is at most 0.5 µg/mL.
For the molecule `CNc1cc(F)c(F)c2c1[nH]c1nc(Oc3cnc(N)nc3)nc(N3CC(N)C4(CC4)C3)c12` (stereo not shown) [5.11], the “MIC Ec” value in assay [1] (setting [13]) is at most 0.5 µg/mL; in assay [1] (Ec = E. coli, strain not given), at most 0.5 µg/mL. For the same molecule, the “MIC Kpn” value in assay [2] worked out at 4 µg/mL (≈ 8.82 µM). The “MIC Sa” value in assay [3] (setting [14]) and in assay [3] (Sa = S. aureus) was at most 0.5 µg/mL throughout. Also, the “MIC Pa” value in assay [4] was 4 µg/mL (≈ 8.82 µM). Further, in assay [5], the “MIC Spn” value is at most 0.5 µg/mL. Further, in assay [6], the “MIC Ab” value is 2 µg/mL (≈ 4.41 µM).
For `CNc1cc(F)c(F)c2c1[nH]c1nc(Oc3cncnc3)nc(N3CC4C(N)C4C3)c12` (stereo not shown) [6.19], in assay [1], the “MIC Ec” value is over 16 µg/mL. Moreover, the “MIC Sa” value in [3] was over 16 µg/mL.
Regarding `CNc1cc(F)c(C)c2c1[nH]c1nc(Oc3cnc(C)nc3)nc(N3CC4(CCC4N)C3)c12` (stereo not shown) [6.20], the “MIC Ec” value in assay [1] was over 16 µg/mL. Moreover, the “MIC Sa” value in assay [3] turned out to be 4 µg/mL (≈ 8.92 µM).
For `CNc1cc(F)c(C)c2c1[nH]c1nc(Oc3cnc(C)nc3)nc(NCCCN)c12` [6.21] the same measures were over 16 µg/mL and over 16 µg/mL.
For `CNc1cc(F)c(C)c2c1[nH]c1nc(Oc3cnc(C)nc3)nc(NC3CCCCC3N)c12` (stereo not shown) [6.22], in [1], the “MIC Ec” value was over 16 µg/mL. Besides, the “MIC Sa” value in assay [3] was over 16 µg/mL.
In the case of `CNc1ccc(F)c2c1[nH]c1nc(Oc3cnc(N)nc3)nc(C3CC4C(N)C4C3)c12` (stereo not shown) [6.25], the MIC in [1] (setting [10]) and in [3] (setting [12]) was at most 0.5 µg/mL each time.
